Results published in patent US6465482B2, “Arylpiperazinyl-cyclohexyl indole derivatives for the treatment of depression” (Wyeth, priority 1999, dated 2002).

Legend:
[1] = biological target: T1, 5-HT1A cloned receptor membrane fragments (Homo sapiens, UniProt P08908); assay: [35S]-GTPγS binding assay; assay type: biochemical; settings: relative to excess 8-OH-DPAT maximum agonist response
T1 construct: expressed in transfected cells
T1 sequence (P08908 1-422): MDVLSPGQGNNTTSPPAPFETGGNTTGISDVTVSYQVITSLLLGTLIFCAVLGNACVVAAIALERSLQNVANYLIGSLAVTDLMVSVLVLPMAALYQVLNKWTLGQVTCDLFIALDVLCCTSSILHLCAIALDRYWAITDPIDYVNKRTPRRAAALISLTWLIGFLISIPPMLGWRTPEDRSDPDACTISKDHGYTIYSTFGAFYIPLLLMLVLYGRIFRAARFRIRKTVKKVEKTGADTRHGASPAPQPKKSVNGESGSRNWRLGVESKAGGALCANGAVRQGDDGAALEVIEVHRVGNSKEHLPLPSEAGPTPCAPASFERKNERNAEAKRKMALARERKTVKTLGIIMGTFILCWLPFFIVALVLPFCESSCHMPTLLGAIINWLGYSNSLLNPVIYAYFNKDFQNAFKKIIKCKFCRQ
Method: The [^35S]-GTPγS biding assay was similar to that used by Lazarenno and Birdsall, Br. J. Pharmacol. 109:1120 (1993). Briefly, 5-HT1A cloned receptor membrane fragments (as used for 5-HT1A receptor binding assays were stored at −70° C. unit needed. When needed, membranes were rapidly thawed, centrifuged at […] for 10 minutes and resuspended at 4° C. for 10 minutes in assay buffer (25 mM HEPES, 3 mM MgCl2, 100 mM NaCl, 1 mM EDTA, 10 uM GDP, […], pH 8.0). These membranes were then incubated for 30 minutes at 30+ C. with [^35S]GTPgS (1 nM) in the presence of vehicle, test compound (one to eight concentrations), or excess 8-OH-DPAT to define maximum agonist response. All reactions are terminated by the addition of ice cold Tris buffer followed by rapid filtration using a Tom Tech® filtration device to separate bound from free [^35S]GTPgS. Agonists produce an increase in the amount of [^35S]GTPgS bound whereas antagonists produce no increase in binding. Bound radioactivity was counted and analyzed as above.

[2] = biological target: T2, human 5-HT1A receptor subtype (5-HT1A CHO cells) (Homo sapiens, UniProt P08908); assay: forskolin-stimulated cAMP formation (cAMP SPA assay); assay type: cell-based; settings: forskolin 1 uM
T2 construct: expressed in transfected cells
T2 sequence (P08908 1-422): T1 sequence (P08908 1-422)
Method: (§1) The PCR cloning of the human 5-HT1A receptor subtype from a human genomic library has been described previously Chanda et al., Mol. Pharmacol., 43:516 (1993). A stable Chinese hamster ovary cell line expressing the human 5-HT1A receptor subtype (5-HT1A.CH2O cells) was employed throughout this study. Cells were maintained in DMEM supplemented with 10% fetal calf serum, non-essential amino acids and penicillin/streptomycin.
The following assays were performed by incubating the cells with DMEM containing 25 mM HEPES, 5 mM theophylline and 10 μM pargyline for a period of 20 minutes at 37° C. Functional activity was assessed by treating the cells with forskolin (1 uM final concentration) followed immediately by test compound (6 concentrations) for an additional 10 minutes at 37° C. In separate experiments, 6 concentrations of antagonist were preincubated for 20 minutes prior to the addition of 10 nM 8-OH-DPAT and forskolin. The reaction was terminated by removal of the media and addition of 0.5 ml ice cold assay buffer. Plates were stored at −20° C. prior to assessment of cAMP formation by a cAMP SPA assay (Amersham).

serotonin transporter = biological target: T3, serotonin transporter (Rattus norvegicus, UniProt P31652); assay: serotonin transporter affinity, 3H-paroxetine binding, frontal cortical membranes; settings: 3H-paroxetine 0.1 nM; read-out: ST (Ki, nM,)
T3 construct: frontal cortical membranes prepared from male Sprague-Dawley rats; from tissue; host or cells: rat frontal cortex membranes
T3 sequence (P31652 whole entry): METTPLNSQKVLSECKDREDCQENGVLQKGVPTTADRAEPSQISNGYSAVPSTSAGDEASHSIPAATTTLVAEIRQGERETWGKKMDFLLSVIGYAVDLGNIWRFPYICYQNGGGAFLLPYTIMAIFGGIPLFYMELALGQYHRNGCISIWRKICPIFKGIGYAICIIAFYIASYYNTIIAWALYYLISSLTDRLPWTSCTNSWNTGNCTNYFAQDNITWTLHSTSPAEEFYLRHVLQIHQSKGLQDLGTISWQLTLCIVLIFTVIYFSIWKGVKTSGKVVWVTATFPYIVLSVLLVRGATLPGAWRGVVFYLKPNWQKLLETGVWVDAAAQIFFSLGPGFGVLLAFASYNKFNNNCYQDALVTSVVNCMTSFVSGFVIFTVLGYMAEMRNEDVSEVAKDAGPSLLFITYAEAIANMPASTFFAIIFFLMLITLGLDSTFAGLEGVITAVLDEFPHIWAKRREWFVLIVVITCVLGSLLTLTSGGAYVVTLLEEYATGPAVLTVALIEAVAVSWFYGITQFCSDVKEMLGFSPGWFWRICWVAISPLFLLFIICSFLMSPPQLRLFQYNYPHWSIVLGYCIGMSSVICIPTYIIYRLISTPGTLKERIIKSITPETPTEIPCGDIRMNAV
Method: A protocol similar to that used by Cheetham et al., Neuropharmacol. […] Briefly, frontal cortical membranes prepared from male Sprague-Dawley rats were incubated with ^3H-paroxetine (0.1 nM) for 60 minutes at 25° C. […] All reactions are terminated by the addition of ice cold Tris buffer followed by rapid filtration using a Tom Tech filtration device to separate bound from free ^3H-paroxetine.

[3] = biological target: T4, human 5-HT1A receptor subtype (Homo sapiens, UniProt P08908); assay: 5-HT1A receptor binding, [3H]8-OH-DPAT, CHO cell membranes; settings: [3H]8-OH-DPAT 1.5 nM
T4 construct: expressed in transfected cells
T4 sequence (P08908 1-422): T1 sequence (P08908 1-422)
Method: as §1
Cells were grown to 95-100% confluency as a monolayer before membranes were harvested for binding studies. Cells were gently scraped from the culture plates, transferred to centrifuge tubes, and washed twice by centrifugation (2000 rpm for 10 min., 4° C.) in buffer (50 mM Tris; pH 7.5). The resulting pellets were aliquoted and placed at −80° C. On the day of assay, the cells were thawed on ice, and resuspended in buffer. Studies were conducted using [^3H]8-OH-DPAT as the radioligand. The binding assay was performed in 96 well microtiter plates in a final total volume of 250 μL of buffer. Competition experiments were performed by using 7 concentrations of unlabelled drug and a final ligand concentration of 1.5 nM. Non-specific binding was determined in the presence of 10 μM 5HT. Saturation analysis was conducted by using [^3H]8-OH-DPAT at concentaritions ranging from 0.3-30 nm Following a 30 minute incubation at room temperature, the reaction was terminated by the addition of ice cold buffer and rapid filtration using a M-96 Brandel Cell Harvester (Gaithersburg, Md.) through a GF/B filter presoaked for 30 minutes in 0.5% polyethylenenimine.

## N#Cc1ccc2[nH]cc([C@H]3CC[C@H](N4CCN(c5cccc6cccnc56)CC4)CC3)c2c1 [Example 29b, 3-[(1,4-trans)-4-(4-Quinolin-8-yl-piperazin-1-yl)-cyclohexyl]-1H-indole-5-carbonitrile]
[1]
  Emax: 70%

## N#Cc1ccc2[nH]cc([C@H]3CC[C@@H](N4CCN(c5cccc6[nH]ccc56)CC4)CC3)c2c1 [Example 7a, 3-{4-[(1,4-cis)-4-(1H-Indol-4-yl)-piperazinyl-1-yl]cyclohexyl}-1H-indole-5-carbonitrile]
[2]
  Emax: 0%
Serotonin transporter
  Ki: 1.62 nM
[1]
  Emax: 0%

## COc1ccc2[nH]cc([C@H]3CC[C@H](N4CCN(c5ccccc5OC)CC4)CC3)c2c1 [Example 20b, 5-Methoxy-3-{(1,4-trans)-4-[4-(2-methoxy-phenyl)-piperazin-1-yl]-cyclohexyl}-1H-indole]
[3]
  Ki: 14.9 nM
[2]
  Emax: 75.5%
[1]
  Emax: 33%

## N#Cc1ccc2[nH]cc([C@H]3CC[C@H](N4CCN(c5cccc6c5OCCO6)CC4)CC3)c2c1 [Example 26b, 3-{(1,4-trans)-4-[4-(2,3-Dihydro-benzo[1,4]dioxin-5-yl)-piperazin-1-yl]-cyclohexyl}-1H-indole-5-carbonitrile]
[3]
  Ki: 8.5 nM
Serotonin transporter
  Ki: 23 nM
[1]
  Emax: 39%

## Fc1ccc2[nH]cc([C@H]3CC[C@@H](N4CCN(c5cccc6[nH]ccc56)CC4)CC3)c2c1 [Example 3a, 5-Fluoro-3-[cis-4-[4-(1H-indol-4-yl)-1-piperazinyl]cyclohexyl]-1H-indole]
[3]
  Ki: 36.7 nM
[2]
  Emax: 0%
[1]
  Emax: 10%

## c1cc(N2CCN([C@H]3CC[C@H](c4c[nH]c5ncccc54)CC3)CC2)c2cc[nH]c2c1 [Example 10b, 3-{(1,4-trans)-4-[4-(1H-Indole-4-yl)-piperazin-1-yl]-cyclohexyl}-1H-pyrrolo[2,3-b]pyridine]
[3]
  Ki: 7.78 nM
[2]
  Emax: 79%
[1]
  Emax: 14%

## N#Cc1ccc2[nH]cc([C@H]3CC[C@@H](N4CCN(c5cccc6c5OCCO6)CC4)CC3)c2c1 [Example 26a, 3-{(1,4-cis)-4-[4-(2,3-Dihydro-benzo[1,4]dioxin-5-yl)-piperazin-1-yl]-cyclohexyl}-1H-indole-5-carbonitrile]
[3]
  Ki: 59.1 nM
[2]
  Emax: 0%
Serotonin transporter
  Ki: 4.1 nM
[1]
  Emax: 18%

## Fc1ccc2c(c1)[nH]cc2[C@H]1CC[C@H](N2CCN(c3cccc4c3OCCO4)CC2)CC1 [Example 25b, 3-{(1,4-trans)-4-[4-(2,3-Dihydro-benzo[1,4]dioxin-5-yl)-piperazin-1-yl]-cyclohexyl}-6-fluoro-1H-indole]
[3]
  Ki: 9.66 nM
Serotonin transporter
  Ki: 58 nM
[1]
  Emax: 46%

## COc1ccccc1C1CCN([C@H]2CC[C@H](c3c[nH]c4ccc(F)cc43)CC2)CC1 [Example 19b, 5-Fluoro-3-{(1,4-trans)-4-[4-(2-methoxy-phenyl)-piperidin-1-yl]-cyclohexyl}-1H-indole]
[3]
  Ki: 26.2 nM
[2]
  Emax: 92%
[1]
  Emax: 74%
